Laboratory results reported in article PMC5306265 (Investigational New Drugs, 2016).
Read-outs that look alike come from different tables or passages of the source.

Key:
[1] = tested on: pERK levels in CD3-positive lymphocytes; test: Inhibition of ERK phosphorylation in peripheral blood mononuclear cells (ex vivo stimulation assay, flow cytometry); set-up: species or system human; conditions: for Emax: Homo sapiens, Lymphocyte
Protocol: The extent of ERK phosphorylation in peripheral blood mononuclear cells was determined using an ex vivo stimulation assay; pERK levels in CD3-positive lymphocytes were measured by flow cytometry assessing mean fluorescence (MEFL) under phorbol myristate acetate (PMA)-stimulated and unstimulated conditions. Mean percent change from baseline in blood pERK level over time was determined following single and multiple doses of TAK-733. Noncompartmental analyses, using WinNonlin version 6.1 or higher (Pharsight, Cary, NC), in pharmacodynamic-evaluable patients were used to determine the following pharmacodynamic parameters for inhibition of ERK phosphorylation: maximum observed effect (Emax), time to Emax (TEmax), area under the effect (inhibition)–time curve over the dosing interval (AUEC(0-τ)), and average effect over the dosing interval (Eav).

[2] = once-daily oral dosing, mouse xenograft models; cited from earlier work
[3] = MTD of 16 mg, day 21 of cycle 1, stated as inhibition

With `Cn1c(=O)c(F)c(Nc2ccc(I)cc2F)c2c(=O)n(C[C@@H](O)CO)cnc21` [TAK-733] the “AUEC(0-τ) Mean (SD)” value ([1]; 0.8 mg, day 1) was “–450 (60) h*%”, the “Eav Mean (SD)” value ([1]; 0.8 mg, day 1) was “–19.3 (2.0) %” and the “TEmax Median (range)” value ([1]; 0.8 mg, day 1) was 3.0 (2–4) h. The “TEmax Median (range)” value ([1]; 0.8 mg, day 21) was 3.0 (2–4) h, the “AUEC(0-τ) Mean (SD)” value ([1]; 1.6 mg, day 1) was “–1175 (134) h*%” and the “Eav Mean (SD)” value ([1]; 1.6 mg, day 1) was “–47 (8.2) %”. The “TEmax Median (range)” value ([1]; 1.6 mg, day 1) was 4.0 (4–4) h, the “AUEC(0-τ) Mean (SD)” value ([1]; 1.6 mg, day 21) was “–1020 h*%” and the “Eav Mean (SD)” value ([1]; 1.6 mg, day 21) was “–42.2%”. For the same compound, the “AUEC(0-τ) Mean (SD)” value ([1]; 3.2 mg, day 1) was “–643 (405) h*%”, the “Eav Mean (SD)” value ([1]; 3.2 mg, day 1) was “–26.9 (16.9) %” and the “TEmax Median (range)” value ([1]; 3.2 mg, day 1) was 1.1 (1–4) h. For the same compound, the “AUEC(0-τ) Mean (SD)” value ([1]; 3.2 mg, day 21) was “–785 h*%”, the “Eav Mean (SD)” value ([1]; 3.2 mg, day 21) was “–31.6%” and the “AUEC(0-τ) Mean (SD)” value ([1]; 4.4 mg, day 1) was “–542 (492) h*%”. For the same compound, the “Eav Mean (SD)” value ([1]; 4.4 mg, day 1) was “–22.5 (20.5) %”, the “TEmax Median (range)” value ([1]; 4.4 mg, day 1) was 1.5 (1–2) h and the “AUEC(0-τ) Mean (SD)” value ([1]; 4.4 mg, day 21) was “–164 (447) h*%”. For the same compound, the “Eav Mean (SD)” value ([1]; 4.4 mg, day 21) was “–6.4 (18.3) %”, the “TEmax Median (range)” value ([1]; 4.4 mg, day 21) was 2.0 (2–4) h and the “AUEC(0-τ) Mean (SD)” value ([1]; 6 mg, day 1) was “–397 (458) h*%”. The “Eav Mean (SD)” value ([1]; 6 mg, day 1) was “–16.5 (18.9) %”, the “TEmax Median (range)” value ([1]; 6 mg, day 1) was 4.0 (1–4) h and the “AUEC(0-τ) Mean (SD)” value ([1]; 6 mg, day 21) was 29 (464) h*%. For the same compound, the “Eav Mean (SD)” value ([1]; 6 mg, day 21) was 0.7 (18.7) %, the “AUEC(0-τ) Mean (SD)” value ([1]; 8.4 mg, day 1) was “–981 (624) h*%” and the “Eav Mean (SD)” value ([1]; 8.4 mg, day 1) was “–41.6 (26.5) %”. The “TEmax Median (range)” value ([1]; 8.4 mg, day 1) was 3.0 (1–8) h, the “AUEC(0-τ) Mean (SD)” value ([1]; 8.4 mg, day 21) was “–937 (811) h*%” and the “Eav Mean (SD)” value ([1]; 8.4 mg, day 21) was “–39.7 (34.2) %”. For the same compound, the “TEmax Median (range)” value ([1]; 8.4 mg, day 21) was 2.1 (1–4) h, the “AUEC(0-τ) Mean (SD)” value ([1]; 11.8 mg, day 1) was “–971 (241) h*%” and the “Eav Mean (SD)” value ([1]; 11.8 mg, day 1) was “–40.5 (10.0) %”. For the same compound, the “TEmax Median (range)” value ([1]; 11.8 mg, day 1) was 4.1 (4–8) h, the “AUEC(0-τ) Mean (SD)” value ([1]; 11.8 mg, day 21) was “–1900 h*%” and the “Eav Mean (SD)” value ([1]; 11.8 mg, day 21) was “–78.1%”. The “TEmax Median (range)” value ([1]; 11.8 mg, day 21) was 2.2 (2.1–2.3) h, the “AUEC(0-τ) Mean (SD)” value ([1]; 16 mg, day 1) was “–948 (624) h*%” and the “Eav Mean (SD)” value ([1]; 16 mg, day 1) was “–40.1 (26.3) %”. The “TEmax Median (range)” value ([1]; 16 mg, day 1) was 4.0 (2–8) h, the “AUEC(0-τ) Mean (SD)” value ([1]; 16 mg, day 21) was “–1947 (125) h*%” and the “Eav Mean (SD)” value ([1]; 16 mg, day 21) was “–82.4 (5.5) %”. For the same compound, the “TEmax Median (range)” value ([1]; 16 mg, day 21) was 4.6 (4–24) h, the “AUEC(0-τ) Mean (SD)” value ([1]; 22 mg, day 1) was “–1517 (257) h*%” and the “Eav Mean (SD)” value ([1]; 22 mg, day 1) was “–64.5 (11.3) %”. For the same compound, the “TEmax Median (range)” value ([1]; 22 mg, day 1) was 7.6 (1–8) h, the “AUEC(0-τ) Mean (SD)” value ([1]; 22 mg, day 21) was “–1615 (288) h*%” and the “Eav Mean (SD)” value ([1]; 22 mg, day 21) was “–66.7 (11.7) %”. For the same compound, the “TEmax Median (range)” value ([1]; 22 mg, day 21) was 3.1 (1–8) h, the Emax ([1]; 24 h, 0.8 mg, day 1, % change from baseline in pERK, read-out: Emax Mean (SD)) was -40.5% and the Emax ([1]; 24 h, 1.6 mg, day 1, % change from baseline in pERK, read-out: Emax Mean (SD)) was -61.3%. The Emax ([1]; 24 h, 3.2 mg, day 1, % change from baseline in pERK, read-out: Emax Mean (SD)) was -41.2%, the Emax ([1]; 24 h, 4.4 mg, day 1, % change from baseline in pERK, read-out: Emax Mean (SD)) was -49.2% and the Emax ([1]; 24 h, 6 mg, day 1, % change from baseline in pERK, read-out: Emax Mean (SD)) was -59.8%. The Emax ([1]; 24 h, 8.4 mg, day 1, % change from baseline in pERK, read-out: Emax Mean (SD)) was -64.5%, the Emax ([1]; 24 h, 11.8 mg, day 1, % change from baseline in pERK, read-out: Emax Mean (SD)) was -61.3% and the Emax ([1]; 24 h, 16 mg, day 1, % change from baseline in pERK, read-out: Emax Mean (SD)) was -77.3%. It also gave an Emax ([1]; 24 h, 22 mg, day 1, % change from baseline in pERK, read-out: Emax Mean (SD)) of -84.1%, an Emax ([1]; 504 h, 0.8 mg, day 21, % change from baseline in pERK, read-out: Emax Mean (SD)) of -39.2% and an Emax ([1]; 504 h, 1.6 mg, day 21, % change from baseline in pERK, read-out: Emax Mean (SD)) of -43%. The Emax ([1]; 504 h, 3.2 mg, day 21, % change from baseline in pERK, read-out: Emax Mean (SD)) was -66.8%, the Emax ([1]; 504 h, 4.4 mg, day 21, % change from baseline in pERK, read-out: Emax Mean (SD)) was -28% and the Emax ([1]; 504 h, 6 mg, day 21, % change from baseline in pERK, read-out: Emax Mean (SD)) was -64%. The Emax ([1]; 504 h, 8.4 mg, day 21, % change from baseline in pERK, read-out: Emax Mean (SD)) was -63.8%, the Emax ([1]; 504 h, 11.8 mg, day 21, % change from baseline in pERK, read-out: Emax Mean (SD)) was -79.3% and the Emax ([1]; 504 h, 16 mg, day 21, % change from baseline in pERK, read-out: Emax Mean (SD)) was -84.7%. For the same compound, the Emax ([1]; 504 h, 22 mg, day 21, % change from baseline in pERK, read-out: Emax Mean (SD)) was -82.9%, the Emax ([1]; 504 h, MTD of 16 mg, day 21 of cycle 1, stated as inhibition, read-out: mean Emax) was 85% and the Emax ([1]; 504 h, day 21, doses of 8.4 mg and above, read-out: maximum decrease in pERK (Emax)) was 46 to 97%. The “mean AUEC(0-τ)” value [1, 3] was 1947 h* %, the “mean Eav” value [1, 3] was 82% and the “duration of pERK decreases” value ([1]; day 21 of cycle 1, doses of less than 8.4 mg) was “relatively transient”. For the same compound, the “duration of target inhibition” value ([1]; day 21 of cycle 1, higher doses (8.4 mg and above)) was over 4 h, the On-study death (N = 51) was 5 (10) n (%) and the Rash pustular (drug-related grade ≥ 3 AE, N = 51) was 1 (2) n (%). The “on-study deaths related to TAK-733” value (five on-study deaths) was “None of the deaths were considered related to TAK-733”, the “AE resulting in study drug discontinuation” value (human, in vivo) was 7 (14) n (%) and the AST increased (human, in vivo) was 7 (14) n (%). For the same compound, the “Any drug-related AE” value (human, in vivo) was 45 (88) n (%), the Decreased appetite (human, in vivo) was 10 (20) n (%) and the Dry skin (human, in vivo) was 5 (10) n (%). For the same compound, the Hypophosphatemia (human, in vivo) was 1 (2) n (%), the “Increased AST” value (human, in vivo) was 13 (25) n (%) and the “Increased CPK” value (human, in vivo) was 10 (20) n (%). For the same compound, the Neuropathy peripheral (human, in vivo) was 1 (2) n (%), the Pain in extremity (human, in vivo) was 1 (2) n (%) and the Pulmonary embolism (human, in vivo) was 1 (2) n (%). For the same compound, the “SAE: anemia” value (human, in vivo) was 2 n, the “SAE: progression of metastatic melanoma” value (human, in vivo) was 3 n and the “SAE: pulmonary embolism” value (human, in vivo) was 2 n. The “abnormal sensation in eye” value (human, in vivo) was 1 n, the blurred vision (human, in vivo) was 2 n and the “patients with any rash AEs” value (human, in vivo) was 34 (67 %) patients (%). For the same compound, the “patients with erythematous rash” value (human, in vivo) was 1 (2 %) patients (%), the “patients with exfoliative rash” value (human, in vivo) was 1 (2 %) patients (%) and the “patients with macular rash” value (human, in vivo) was 2 (4 %) patients (%). For the same compound, the “patients with maculo-papular rash” value (human, in vivo) was 2 (4 %) patients (%), the “patients with ophthalmic AEs (eye disorders system organ class)” value (human, in vivo) was 7 (14 %) patients (%) and the “patients with papular rash” value (human, in vivo) was 2 (4 %) patients (%). The “patients with pruritic rash” value (human, in vivo) was 1 (2 %) patients (%), the patients with rash (human, in vivo) was 3 (6 %) patients (%) and the periorbital edema (human, in vivo) was 1 n. The photophobia (human, in vivo) was 1 n, the photopsia (human, in vivo) was 2 n and the retinal edema (human, in vivo) was 1 n. For the same compound, the visual impairment (human, in vivo) was 3 n, the “cutaneous squamous cell carcinomas” value (in vivo) was “No cutaneous squamous cell carcinomas were seen” and the retinopathies (in vivo) was “absence of retinopathies”. For the same compound, the “patients with pustular rash” value (overall, N = 51) was 1 (2 %) patients (%) and the “time after dosing at which plasma concentrations decrease rapidly” value [2] was 8 to 16 h.
